Reference: the supplement of paper PMC8671470

What was measured:
Settings in all cases: 72 h
MV4-11 [1] = test system: MV4-11
Summary of the method: (§1)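 The IC50 was derived from log-logistic dose–response fitting. Each of fifteen myeloid leukaemia cell lines, seeded in RPMI 1640 within its linear growth range, was exposed in 384-well plates to five tenfold doses (1 to 10,000 nM) in duplicate for 72 h at 37 °C and 5% CO2. Luminescent ATP viability readings were normalised to vehicle and to a positive control at 10 µM before four-parameter curve fitting.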

HL-60 [2] = test system: HL-60
Summary of the method: as §1

BV-173 = test system: BV-173
Summary of the method: as §1

SHI-1 [3] = test system: SHI-1
Summary of the method: as §1

K-562 [4] = test system: K-562
Summary of the method: as §1

THP-1 [5] = test system: THP-1
Summary of the method: as §1

KCL-22 [6] = test system: KCL-22
Summary of the method: as §1

KU-812 [7] = test system: KU-812
Summary of the method: as §1

MOLM-13 [8] = test system: MOLM-13
Summary of the method: as §1

ML-2 [9] = test system: ML-2
Summary of the method: as §1

Mono-Mac-6 = test system: Mono-Mac-6
Summary of the method: as §1

NOMO-1 [10] = test system: NOMO-1
Summary of the method: as §1

HEL [11] = test system: HEL
Summary of the method: as §1

LAMA-84 = test system: LAMA-84
Summary of the method: as §1

KG-1 [12] = test system: KG-1
Summary of the method: as §1

HL-60 [13] = assay: cell viability (% survival relative to DMSO control); higher = less cytotoxic
Summary of the method: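 Area under the curve, where listed, was derived from four-parameter log-logistic fits with drc and PharmacoGx. These fits used CellTiter-Glo viability from HL-60 cells in RPMI 1640 with 10% FBS, normalised to DMSO wells and wells holding 10 μM proteasome inhibitor. The full library was rescreened on 384-well plates in duplicate at five tenfold concentrations, 1–10,000 nM, with DMSO or 100 nM of one of three metabolic inhibitors, for 72 h at 37 °C, 5% CO2.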

MV4-11 [14] = assay: cell viability (% survival relative to DMSO control, bortezomib = 0%); higher = less cytotoxic
Summary of the method: (§2)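 Percent survival figures are means of duplicate wells. They were obtained by CellTiter-Glo luminescence after 10 AML and 5 CML cell lines spent 72 h at 37 °C with 5% CO2 in 384-well plates with compounds at 1, 10, 100, 1000 or 10000 nM. Vehicle was set to 100% and a 10 µM positive control to 0%.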

HL-60 [15] = assay: as above
Summary of the method: as §2

SHI-1 [16] = assay: as above
Summary of the method: as §2

K-562 [17] = assay: as above
Summary of the method: as §2

THP-1 [18] = assay: as above
Summary of the method: as §2

KCL-22 [19] = assay: as above
Summary of the method: as §2

KU-812 [20] = assay: as above
Summary of the method: as §2

MOLM-13 [21] = assay: as above
Summary of the method: as §2

ML-2 [22] = assay: as above
Summary of the method: as §2

NOMO-1 [23] = assay: as above
Summary of the method: as §2

HEL [24] = assay: as above
Summary of the method: as §2

KG-1 [25] = assay: as above
Summary of the method: as §2

O=c1cc(N2CCOCC2)oc2c(-c3ccccc3)cccc12
Settings	IC50 (cell viability)
BV-173	23.7 nM
HEL [11]	48.7 nM
HL-60 [2]	334 nM
K-562 [4]	291 nM
KCL-22 [6]	9.05 µM
KG-1 [12]	4970 nM
KU-812 [7]	> 10000 nM
LAMA-84	> 10000 nM
ML-2 [9]	32.8 nM
MOLM-13 [8]	185 nM
MV4-11 [1]	39.2 nM
Mono-Mac-6	3750 nM
NOMO-1 [10]	25.2 nM
SHI-1 [3]	3600 nM
THP-1 [5]	> 10000 nM

cell viability [%], HL-60 [13]
Settings	0.001 µM	0.01 µM	0.1 µM	1 µM	10 µM
co-treatment: AZD3965 100 nM	99.5	101	103.3	100	75.2
co-treatment: DMSO vehicle	99.2	100	102	91.6	86
co-treatment: GSK2194069 100 nM	107	101.4	105	99.4	84
co-treatment: pictilisib 100 nM	110	104	103	92.2	79.6

cell viability [%]
Settings	1 nM	10 nM	100 nM	1000 nM	10000 nM
HEL [24]	133	92.1	23.1	98.9	78.1
HL-60 [15]	130	118	103	0.801	0.404
K-562 [17]	135	104	90.3	6.74	0.516
KCL-22 [19]	123	104	90.5	98.9	45.1
KG-1 [25]	114	106	82.8	90.8	28.4
KU-812 [20]	115	100	56.3	95.1	54.8
ML-2 [22]	143	103	17.6	89.4	54.9
MOLM-13 [21]	125	119	77.5	1.16	0.26
MV4-11 [14]	131	120	0.364	-0.297	-0.0959
NOMO-1 [23]	122	96	9.05	90.4	57.1
SHI-1 [16]	123	102	106	92.8	30.7
THP-1 [18]	116	94.1	99.8	95.8	59.3

O=C1C(SCCO)=C(SCCO)C(=O)c2ccccc21
Settings	IC50 (cell viability)
BV-173	309 nM
HEL [11]	1510 nM
HL-60 [2]	3230 nM
K-562 [4]	549 nM
KCL-22 [6]	0.664 µM
KG-1 [12]	507 nM
KU-812 [7]	530 nM
LAMA-84	747 nM
ML-2 [9]	307 nM
MOLM-13 [8]	381 nM
MV4-11 [1]	219 nM
Mono-Mac-6	664 nM
NOMO-1 [10]	370 nM
SHI-1 [3]	450 nM
THP-1 [5]	424 nM

cell viability [%], HL-60 [13]
Settings	0.001 µM	0.01 µM	0.1 µM	1 µM	10 µM
co-treatment: AZD3965 100 nM	102	105	104	95.3	-0.491
co-treatment: DMSO vehicle	101	104.7	99.1	102	7.09
co-treatment: GSK2194069 100 nM	99.5	98.79	97.3	102	1.87
co-treatment: pictilisib 100 nM	107.4	104	95.6	75.46	-0.39

cell viability [%]
Settings	1 nM	10 nM	100 nM	1000 nM	10000 nM
HEL [24]	110	107	103	69.8	-0.489
HL-60 [15]	123	115	122	101	-0.447
K-562 [17]	98.9	98.8	112	20.6	0.0893
KCL-22 [19]	112	101	89.9	38.3	-0.332
KG-1 [25]	107	90.2	94.9	20.2	-0.961
KU-812 [20]	104	89.1	99.2	20.9	-0.694
ML-2 [22]	101	96.2	95.8	2.66	-0.682
MOLM-13 [21]	104	101	107	5.3	-0.664
MV4-11 [14]	96	113	83.9	0.103	-0.335
NOMO-1 [23]	105	99.7	100	7.84	-0.348
SHI-1 [16]	99.5	103	95.4	16.8	-0.637
THP-1 [18]	100	98.2	106	10.8	-1.37
